Data taken from paper PMC6943612, “Investigation of Anti-Inflammatory Potential of N-Arylcinnamamide Derivatives” (Molecules, 2019).

Key:
THP1-Blue™ NF-κB cells = test: Cell viability determination (WST-1), 24 h; assay type: cell-based; conditions: WST-1, 24 h incubation, serum-free medium, three independent measurements; read-out: IC50 ± SEM, viability of THP1-Blue™ NF-κB cell line
Description: The cell viability was determined as was described previously. […] The final concentration of DMSO was 0.1% (v/v) in each well. Measurements were taken after 24 h incubation with the tested substances. Viability was measured by the Cell Proliferation Reagent kit WST-1 (Roche Diagnostics, Basel, Switzerland) according to the manufacturer’s manual. […] The IC50 values were calculated by four-parameter logistic (4PL) analysis from obtained viability curves.

MAPKs (p38, ERK1/2, JNK) = test: Signaling pathway analysis (Western blot): phosphorylated MAPKs; assay type: cell-based; conditions: 2 µM, 30 min after LPS 1 µg/mL
Description: (§1) The level of IĸB and the amount of activated (phosphorylated) mitogen-activated protein (MAP) kinase p38, ERK1/2, and JNK was determined on the THP1-Blue™ NF-κB, in a way similar to that described previously. Briefly, cells cultivated in serum-free medium were pretreated with the tested compounds (8, 17, cinnamic acid, or prednisone) at concentration 2 µM. One hour later, 1 µg/mL of LPS was added, and after 30 min the cells were collected into ice-cold Mammalian Cell Lysis Buffer (Abcam, Cambridge, UK) with phosphatase inhibitors PhosSTOP (Roche, Mannheim, Germany). Cell lysates were centrifuged 3000 g/5 min/4 °C and supernatants were mixed with 5× Laemmli reducing buffer [250 mM Tris-HCl pH 6.8, 10% (w/v) SDS, 30% (v/v) glycerol, 5% (v/v) β-mercaptolethanol, 0.04% (w/v) bromphenol blue], and incubated at 95 °C for 5 min. […] The membranes were incubated at 4 °C for 16 h with primary anti-IĸB-α (Cell Signaling; product No. 4814; dilution 1:1,000), anti-p44/42 MAPK (ERK1/2) (Cell Signaling; product No. 9102; dilution 1:1,000), anti-phospho-p44/42 MAPK (ERK1/2) (Cell Signaling; product No. 9101; dilution 1:1,000), anti-JNK1/2/3 (Abcam; product No. ab179461; dilution 1:1,000), anti-phosho-JNK1/2/3 (Abcam; product No. ab76572; dilution 1:5,000), anti-p38 MAPK (Cell Signaling; product No. 8690; dilution 1:1,000), anti-phospho-p38 MAPK (Cell Signaling; product No. 9210; dilution 1:1,000), and anti-β-actin (Santa Cruz, Aachen, Germany; product No. sc-47778; dilution 1:5000) antibodies. […] The amount of bound secondary antibody was determined using WesternSure® PREMIUM Chemiluminescent Substrate (LI-COR, Lincoln, NE, USA). Chemiluminescence was detected using a LI-COR C-DiGit chemiluminescence imaging system (LI-COR).
(§2) Figure 6 Effect of N-arylcinnamamide derivatives on the activation of MAPKs. […] Cells were collected 30 min after LPS stimulation and selected proteins were detected by Western blot and immunodetection.

[1] = test system: transcription factor NF-κB; test: Determination of LPS-induced NF-κB activity (Quanti-Blue, SEAP reporter); assay type: cell-based; conditions: for inhibition at 2 µM: concentration of compounds 2 µM; for inhibition at 2 µM / inhibition at 0.5 µM: LPS 1 µg/mL, 24 h; for inhibitory effect on NF-κB activity compared with prednisone (in words): 2 µM, same concentration as prednisone; for inhibition at 0.5 µM: concentration of compounds 0.5 µM
Description: The activity of NF-κB transcription factors was evaluated on THP1-Blue™ NF-κB cells as described previously. […] After 24 h of incubation, 20 µL of cultivation medium was mixed with 200 µL of Quanti-Blue™ medium (Invivogen) and incubated according to the manufacturer’s instructions at 37 °C for 30–40 min. The activity of NF-κB was determined as secretion of embryonic alkaline phosphatase spectrophotometrically in a Tecan Infinite M200 (Tecan, Männedorf Switzerland) at 650 nm and compared with an untreated control (100%).
Figure 3 Effect of the tested compounds on the activity of transcription factor NF-κB. THP1-Blue™ NF-κB cells were pretreated by compounds (2 µM; or 0.5 µM for 10, 11, and 13) or prednisone (PDS; 2 µM) dissolved in DMSO at indicated concentrations for 1 h. Then, lipopolysaccharide (LPS) 1 µg/mL was added to trigger the NF-κB activation. The activity of NF-κB was measured 24 h after LPS stimulation using QuantiBlue™ assay. Graph represents mean ± SEM. Red dotted line show value of DMSO-only treated group, azur dotted line CA treated group, and blue dotted line PDS treated group. ** indicates statistical significance (p < 0.01) to DMSO group; *** indicates statistical significance (p < 0.001) to DMSO group **** indicates statistical significance (p < 0.0001) to DMSO group.

IκBα = test: Signaling pathway analysis (Western blot): IκBα level; assay type: cell-based; conditions: 2 µM, 30 min after LPS 1 µg/mL
Description: as §1, §2

TNF-α = TNF-α secretion by LPS-stimulated PMA-differentiated THP1-Blue™ NF-κB macrophages (ELISA); assay type: cell-based, Human; conditions: 2 µM, LPS 1 µg/mL, 24 h
Description: Differentiated THP1-Blue™ NF-κB macrophages (see the chapter 3.6) were pre-treated for 1 h with 2 µM solutions of the tested compounds 8, 12, 6, 17, cinnamic acid, and prednisone dissolved in DMSO, or only the vehicle [0.1% (v/v) […] solution]. The inflammatory-like response was triggered by adding 1 μg/mL of LPS from E. coli 0111:B4 (Sigma-Aldrich) to the pre-treated macrophages; the control cells were left without LPS treatment. After 24 h, the supernatants were collected and the concentration of TNF-α was measured using a Human TNF-α ELISA Kit (Diaclone, Besançon, France), according to the manufacturer’s manual.
Figure 7 Effect of N-arylcinnamamide derivatives on the secretion of TNF-α. THP1-Blue™ NF-κB cells were differentiated to macrophages by PMA. Such cells were pretreated by compounds or PDS (2 µM) for 1 h, then LPS (1 µg/mL) was added to trigger the inflammatory signalization. Cultivation medium was collected 24 h after LPS stimulation, and the amount of TNF-α was measured by the ELISA technique. Graph represents mean ± SEM. * indicates statistical significance (p < 0.05) to DMSO group; ** indicates statistical significance (p < 0.01) to DMSO group **** indicates statistical significance (p < 0.0001) to DMSO group.

[2] = parameters: method as in PMID 30087309; conditions: cited from earlier work
NF-κB p65 = test: Immunocytochemical analysis of NF-κB nuclear migration; assay type: cell-based; conditions: 2 µM, 1 h after LPS 1 µg/mL, PMA-differentiated macrophages
Description: To differentiate THP1-Blue™ NF-κB monocytes into macrophages, the cells were stimulated with phorbol myristate acetate (PMA) at the final concentration of 50 ng/mL, as was described previously. Cells were seeded into 8-well cell culture glass slide (SPL, Korea) at the concentration of 500,000 cells/mL, 150,000 cells per well. The compound 17 was added at the final concentration of 2 µM, and 1 h later, the cells were activated by LPS (1 µg/mL). After 1h, the culture slide was washed with PBS and fixed with 4% formaldehyde. The cells were permeabilized by 0.1% Triton X-100 (v/v; Merck) and blocked with 3% bovine serum albumin (BSA, Merck) dissolved in PBS. The primary antibody NF-κB p65 (Abcam, Cambridge, UK; product No. ab16502) at concentration 2.5 µg/mL was used for overnight incubation at 4 °C. After that, secondary anti-rabbit antibody labeled with Alexa Fluor® 488 (Cell Signaling; product No. 4412; dilution 1:1000) was added for 1 h in dark, and the nuclei were stained using 0,5 µg/mL DAPI (Merck) for 5 min. The wells were washed three-times between the mentioned steps with PBS. The coverslip was mounted with VectaShield mounting (Vector laboratories, Burlingame, CA, USA) medium and sealed with the nail polish. The nail polish was allowed to dry at 4 °C and the translocation of NF-κB was observed by fluorescence microscopy. […]

SMILES	IC50 (THP1-Blue™ NF-κB cells)	inhibition at 2 µM [1]	other results
O=C(O)/C=C/c1ccccc1 [CA, cinnamic acid, reference compound]	> 30 µM	11.4%	effect on MAPKs activity (MAPKs (p38, ERK1/2, JNK)): no effect; effect on IκBα levels (IκBα): no effect; effect on TNF-α production (in words) (TNF-α): did not affect
Cc1cccc(NC(=O)/C=C/c2ccccc2)c1 [Compound 2]	> 30 µM	9%	–
Cc1ccc(NC(=O)/C=C/c2ccccc2)cc1 [Compound 3]	> 30 µM	8.5%	–
O=C(/C=C/c1ccccc1)Nc1cccc(C(F)(F)F)c1 [Compound 6, (2E)-3-Phenyl-N-[3-(trifluoromethyl)phenyl]prop-2-enamide]	11.6 ± 1.13 µM	16.7%	log k [2]: 0.4859; decrease of the level of TNF-α (TNF-α): 10.4%
Cc1ccc(C)c(NC(=O)/C=C/c2ccccc2)c1 [Compound 7]	> 30 µM	14.8%	–
O=C(/C=C/c1ccccc1)Nc1cc(Cl)ccc1Cl [Compound 8, (2E)-N-(2,5-dichlorophenyl)-3-phenylprop-2-enamide]	> 30 µM	22.5%	effect on MAPKs activity (MAPKs (p38, ERK1/2, JNK)): no effect; inhibitory effect on NF-κB activity compared with prednisone (in words) [1]: comparable with prednisone; effect on IκBα levels (IκBα): no effect
O=C(/C=C/c1ccccc1)Nc1c(Cl)cccc1Cl [Compound 9]	> 30 µM	14.1%	–
O=C(/C=C/c1ccccc1)Nc1ccc(Cl)c(Cl)c1 [Compound 10]	6.28 ± 2.32 µM	–	log k [2]: 0.6821; inhibition at 0.5 µM [1]: 10.9%
O=C(/C=C/c1ccccc1)Nc1cc(Cl)cc(Cl)c1 [Compound 11]	2.43 ± 1.06 µM	–	log k [2]: 0.8155; inhibition at 0.5 µM [1]: 16.2%
O=C(/C=C/c1ccccc1)Nc1c(Br)cccc1Br [Compound 12, (2E)-N-(2,6-dibromophenyl)-3-phenylprop-2-enamide]	> 30 µM	23.1%	inhibitory effect on NF-κB activity compared with prednisone (in words) [1]: comparable with prednisone; decrease of the level of TNF-α (TNF-α): 10%; effect on TNF-α production (in words) (TNF-α): decreased
O=C(/C=C/c1ccccc1)Nc1cc(C(F)(F)F)cc(C(F)(F)F)c1 [Compound 13]	2.17 ± 1.19 µM	–	log k [2]: 0.9814; inhibition at 0.5 µM [1]: 19.7%
O=C(/C=C/c1ccccc1)Nc1cc(Br)ccc1F [Compound 14]	> 30 µM	19.7%	–
O=C(/C=C/c1ccccc1)Nc1cc(F)ccc1Br [Compound 15, (2E)-N-(2-bromo-5-fluorophenyl)-3-phenylprop-2-enamide]	> 30 µM	17.8%	–
O=C(/C=C/c1ccccc1)Nc1ccc(Br)cc1Cl [Compound 16, (2E)-N-(4-bromo-2-chlorophenyl)-3-phenylprop-2-enamide]	> 30 µM	13.7%	–
O=C(/C=C/c1ccccc1)Nc1cc(C(F)(F)F)ccc1Cl [Compound 17, (2E)-N-[2-Chloro-5-(trifluoromethyl)phenyl]-3-phenylprop-2-enamide]	> 30 µM	27.1%	nuclear translocation of NF-κB after LPS stimulation (NF-κB p65): slightly affected; effect on MAPKs activity (MAPKs (p38, ERK1/2, JNK)): no effect; inhibitory effect on NF-κB activity compared with prednisone (in words) [1]: comparable with prednisone; effect on IκBα levels (IκBα): no effect; decrease of the level of TNF-α (TNF-α): 12.4%; effect on TNF-α production (in words) (TNF-α): decreased
COc1ccc([N+](=O)[O-])cc1NC(=O)/C=C/c1ccccc1 [Compound 18, (2E)-N-(2-methoxy-5-nitrophenyl)-3-phenylprop-2-enamide]	> 30 µM	17.6%	–
C[C@]12C=CC(=O)C=C1CC[C@@H]1[C@@H]2C(=O)C[C@@]2(C)[C@H]1CC[C@]2(O)C(=O)CO [PDS, prednisone, reference compound]	–	–	decrease of the level of TNF-α (TNF-α): 70.3%
